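Five concentrations, 48 hours, 96-well plates. GI50 marks 50% less growth.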 Calls of active or inactive are those of the source. No stated cut-off is given here; in the data, active = GI50 up to about 1.1 µM and inactive = higher. Where only a bound is given, the exact number is not on record here.

Assay in all cases: NCI-60 cell line screen, 48 h
Assay [1] concerns NCI-H23.
In assay [2] the test system is SW-620.
Assay [3] deals with KM12.
The test system of assay [4] is HCC 2998.
Assay [5] deals with EKVX.
The subject of assay [6] is MCF7.
Assay [7] deals with LOX IMVI.
Assay [8] relates to SNB-19.
Assay [9] relates to SK-MEL-28.
In assay [10] the test system is RPMI-8226.
In assay [11] the test system is NCI-H522.
Assay [12] has as its system PC-3.
Assay [13] concerns U-251.
Assay [14] deals with HOP-62.
Assay [15] concerns NCI-H460.
Assay [16] concerns MOLT-4.
Assay [17] relates to HCT-15.
Assay [18] has as its system Malme-3M.
For assay [19], the system named is UO-31.

Regarding `COCCN(C(C)=O)C1CCC2(SCCS2)c2[nH]c3ccccc3c21` (stereo unspecified), the GI50 in assay [1], in assay [2], in assay [3], in assay [4], in assay [5] and in [6] was > 100 µM (inactive) each time. The GI50 is > 100 µM (inactive) in assay [7]; > 100 µM (inactive) in [8]; > 100 µM (inactive) in [9]; 35.5 µM (inactive) in [10]; > 100 µM (inactive) in assay [11]; > 100 µM (inactive) in [12]. Besides, the GI50 in assay [13] was > 100 µM (inactive); in assay [14] it was > 100 µM (inactive); in [15] it was 77.6 µM (inactive); in [16], 56.9 µM (inactive); in assay [17], greater than 100 µM; in [18], > 100 µM (inactive).
Regarding `O=C1C=C(O)C(=O)c2c(O)ccc(O)c21`, the GI50 in [1], in [2], in [3], in assay [4], in [6] and in [7] was > 100 µM (inactive) throughout. Further, the GI50 in assay [8], in assay [9], in [10], in assay [11], in [12] and in [13] was > 100 µM (inactive) throughout. The GI50 in [19] was > 100 µM (inactive); in assay [14], > 100 µM (inactive); in assay [15], > 100 µM (inactive); in assay [16] it was > 100 µM (inactive); in assay [17] it was greater than 100 µM; in assay [18] it was 88.5 µM (inactive).
Regarding `C=C1CCc2ccccc2C1=O`, the GI50 in assay [1] was > 100 µM (inactive); in assay [2] it was > 100 µM (inactive); in assay [3], > 100 µM (inactive); in assay [4], > 100 µM (inactive); in assay [5], > 100 µM (inactive); in assay [6], 56 µM (inactive). For the same compound, the GI50 in [8], in assay [10], in assay [11], in assay [12], in assay [13] and in assay [19] was > 100 µM (inactive) each time. The GI50 is > 100 µM (inactive) in assay [14]; > 100 µM (inactive) in assay [15]; 64.7 µM (inactive) in assay [16]; greater than 100 µM in assay [17]; > 100 µM (inactive) in assay [18].
`COc1ccc(CNC(=O)NCn2cc(-c3ccccc3)nn2)cc1`: the GI50 was > 100 µM (inactive) in assay [1]; > 100 µM (inactive) in assay [2]; > 100 µM (inactive) in [3]; 14.1 µM (inactive) in assay [4]; > 100 µM (inactive) in assay [5]; > 100 µM (inactive) in [6]. Moreover, the GI50 in [7], in [8], in assay [9], in assay [10], in assay [11] and in [12] was > 100 µM (inactive) each time. Besides, the GI50 in assay [13] was > 100 µM (inactive); in assay [14], > 100 µM (inactive); in [15], > 100 µM (inactive); in [16] it was > 100 µM (inactive); in assay [17], greater than 100 µM; in [18], > 100 µM (inactive).
On to `O=c1c2cc(Cl)cc(Cl)c2oc2nc3n(c(=O)c12)CCCS3`, for which the GI50 in [1] is > 100 µM (inactive); in [2] it was > 100 µM (inactive); in assay [3] it was > 100 µM (inactive); in assay [4], > 100 µM (inactive); in [5], > 100 µM (inactive); in assay [6], 70.5 µM (inactive). Moreover, the GI50 is > 100 µM (inactive) in assay [8]; > 100 µM (inactive) in [9]; > 100 µM (inactive) in [10]; 16.7 µM (inactive) in [11]; > 100 µM (inactive) in [12]; > 100 µM (inactive) in assay [13]. Also, the GI50 was 18.8 µM (inactive) in assay [19]; > 100 µM (inactive) in [14]; > 100 µM (inactive) in assay [15]; 57.8 µM (inactive) in assay [16]; greater than 100 µM in assay [17]; > 100 µM (inactive) in assay [18].
As to `Nc1cc(N2CCCC2)nc(=O)n1-c1ccccc1`, the GI50 is > 100 µM (inactive) in assay [1]; > 100 µM (inactive) in assay [2]; > 100 µM (inactive) in [3]; 20.7 µM (inactive) in assay [4]; > 100 µM (inactive) in assay [5]; > 100 µM (inactive) in assay [6]. Further, the GI50 in assay [7], in [8], in assay [9], in assay [10], in assay [11] and in assay [12] was > 100 µM (inactive) each time. Also, the GI50 was > 100 µM (inactive) in [13]; > 100 µM (inactive) in [14]; > 100 µM (inactive) in assay [15]; > 100 µM (inactive) in [16]; greater than 100 µM in assay [17]; > 100 µM (inactive) in [18].
Consider `COC1C(OC(=O)c2ccc(C)[nH]2)C(O)C(Oc2ccc3c(O)c(NC(=O)c4ccc(O)c(CC=C(C)C)c4)c(=O)oc3c2Cl)OC1(C)C` (stereo unspecified), for which the GI50 in assay [1] was 20.1 µM (inactive); in assay [2], 18.5 µM (inactive); in assay [3] it was 12.5 µM (inactive); in assay [4] it was 18.1 µM (inactive); in assay [5], 18.7 µM (inactive); in assay [6] it was 18.4 µM (inactive). In addition, the GI50 was 18.1 µM (inactive) in [7]; 15.7 µM (inactive) in assay [8]; 16.3 µM (inactive) in assay [9]; 8.22 µM (inactive) in [10]; 13.2 µM (inactive) in assay [11]; 12.9 µM (inactive) in assay [12]. For the same compound, the GI50 in assay [13] is 12.8 µM (inactive); in assay [14] it was 15.5 µM (inactive); in [15], 21.2 µM (inactive); in [16], 16.2 µM (inactive); in assay [17], 18.5 µM; in [18], 15.5 µM (inactive).
For the compound `O=C(O)CC[P+](c1ccccc1)(c1ccccc1)c1ccccc1`, the GI50 in assay [1] is 23.3 µM (inactive); in assay [2], > 100 µM (inactive); in [3], 29 µM (inactive); in [4] it was > 100 µM (inactive); in assay [5], 36.8 µM (inactive); in assay [6] it was 39 µM (inactive). Besides, the GI50 was 30.7 µM (inactive) in [7]; 24.2 µM (inactive) in assay [8]; > 100 µM (inactive) in assay [9]; 3.21 µM (inactive) in assay [10]; 24.5 µM (inactive) in assay [11]; 37.4 µM (inactive) in [12]. The GI50 was 23.2 µM (inactive) in assay [13]; > 100 µM (inactive) in assay [19]; 37.2 µM (inactive) in assay [14]; 49.1 µM (inactive) in assay [16]; greater than 100 µM in assay [17]; 16.3 µM (inactive) in assay [18].
As to `Nc1ncnc2c1ncn2C1OC(COC2C(CO)OC(OC(C(=O)O)C(O)C(OP(=O)(O)O)C(O)C(=O)O)C(O)C2O)C(O)C1O` (stereo unspecified), the GI50 in [1], in assay [2], in assay [3], in [4], in [5] and in assay [6] was > 100 µM (inactive) in each case. Moreover, the GI50 in [7] was > 100 µM (inactive); in [8], > 100 µM (inactive); in assay [9], > 100 µM (inactive); in assay [10], > 100 µM (inactive); in assay [11] it was 59.3 µM (inactive); in [12], > 100 µM (inactive). The GI50 in assay [13] is > 100 µM (inactive); in assay [14] it was > 100 µM (inactive); in assay [15], > 100 µM (inactive); in assay [16] it was > 100 µM (inactive); in [17], greater than 100 µM; in assay [18], 45.7 µM (inactive).
As for `O=S(=O)(O)c1ccc2c(/N=N/c3ccccc3)c(O)c(S(=O)(=O)O)cc2c1`, the GI50 is > 100 µM (inactive) in assay [1]; > 100 µM (inactive) in assay [2]; > 100 µM (inactive) in [3]; > 100 µM (inactive) in assay [4]; 67 µM (inactive) in [5]; > 100 µM (inactive) in assay [6]. The GI50 in [8] is > 100 µM (inactive); in assay [9], > 100 µM (inactive); in [10] it was < 0.01 µM (active); in assay [11] it was > 100 µM (inactive); in assay [12] it was > 100 µM (inactive); in [13], > 100 µM (inactive). The GI50 was > 100 µM (inactive) in assay [19]; > 100 µM (inactive) in [14]; > 100 µM (inactive) in assay [15]; > 100 µM (inactive) in [16]; greater than 100 µM in assay [17]; > 100 µM (inactive) in [18].
Take `Cc1cc(S(=O)(=O)Nc2nc3ccccc3nc2-c2ccc(Cl)cc2)c(S)cc1Cl`: the GI50 is 18.5 µM (inactive) in assay [1]; 17.2 µM (inactive) in assay [3]; 15.7 µM (inactive) in assay [4]; 15.7 µM (inactive) in assay [5]; 17 µM (inactive) in assay [6]; 19 µM (inactive) in [8]. The GI50 in assay [9] is 16.8 µM (inactive); in assay [10] it was 23.1 µM (inactive); in assay [11], 13.6 µM (inactive); in assay [12], 17.1 µM (inactive); in [13] it was 16.4 µM (inactive); in assay [19], 15.9 µM (inactive). The GI50 in [14] was 22.4 µM (inactive); in [15] it was 13.6 µM (inactive); in assay [16], 13.8 µM (inactive); in assay [17], 20.1 µM; in assay [18], 22.7 µM (inactive).

For the origin of these results see ChEMBL document CHEMBL1201862, “PubChem BioAssay data set” (2004).
